Measurements as given in article PMC11080019, “Synthesis and Biological Profiling of Quinolino-Fused 7-Deazapurine Nucleosides” (ACS Omega, 2024).
pIC50: −log10 of the molar value.

Legend:
MRC-5 = assay: MTS cytotoxicity assay, MRC-5 fibroblasts; assay type: cell-based; conditions: Homo sapiens, MRC5; nonmalignant fibroblasts MRC-5; top concentration 50 μM
Description: (§1) All the titled nucleosides 14a–g were tested for their in vitro cytotoxic activity. The following cancer cell lines were used for the study: A549 (lung cancer), CCRF-CEM (acute T-lymphoblastic leukemia), HCT116 and HCT116p53^– (colon carcinoma, parental and p53 deficient), K562 (chronic myelogenous leukemia), and U2OS (bone osteosarcoma) using a colorimetric MTS assay.[25] Additionally, HeLa (cervical cancer), HepG2 (hepatocellular liver carcinoma), and HL60 (acute promyelocytic leukemia) cell lines were tested using the luminescent CellTiter-Glo assay. For comparison, nonmalignant fibroblast cell lines (BJ and MRC-5) were included in the MTS assay, whereas noncancerous human dermal fibroblasts (NHDF) were assessed with the CellTiter-Glo assay.[26] Initial screenings were done at 50 μM concentration for the MTS assay and 10 μM for the CellTiter-Glo assay.
(§2) Unless otherwise stated, all reactions were carried out under an argon atmosphere. An oil bath was used for reactions requiring heating. Thin-layer chromatography (TLC) was performed on Merck silica gel 60 F-254 aluminum sheets. Visualization was obtained by UV light (λmax = 254 or 366 nm). High-performance flash chromatography (HPFC) was conducted with a Combi Flash Rf instrument from Teledyne Isco Inc. using SiO2 (particle size 0.040–0.063 mm, 230–400 mesh) from Fluorochem in refillable flash columns or HP C18 Redi Sep Rfgold flash columns with the solvent gradient indicated in the corresponding procedures. Preparative high-pressure liquid chromatography (prep. HPLC) was performed on a Waters 2535 Quaternary Gradient System with a fraction collector. Melting points (m.p.) were measured by Bohunka Šperlichová at Charles University Prague on a Büchi Melting Point B-545 apparatus using open glass capillaries and are uncorrected. Optical rotation of final nucleosides was measured by the analytical laboratory at IOCB Prague using an AUTOPOL IV automatic polarimeter from Rudolph Research Analytical at 20 °C and 589 nm. The sample concentration c is given in g mL^–1. ^1H and ^13C{^1H} NMR spectra were measured on a Bruker Avance III 500 MHz spectrometer at 25 °C in CDCl3 referenced to the residual solvent signal (δH = 7.26 ppm, δC = 77.16 ppm), in deuterated dimethyl sulfoxide (DMSO-d6) referenced to the residual solvent signal (δH = 2.50 ppm, δC = 39.52 ppm], or in D2O with tBuOH-d10 as the external standard [δH = 1.25 ppm, δC = 31.6 ppm]. ^31P NMR NMR spectra were referenced externally to the signal of H3PO4. Coupling constants (J) are given in Hz, and the multiplets are described as s (singlet), d (doublet), t (triplet), q (quartet), m (multiplet), and b (broad). ^13C{^1H} NMR experiments were broadband proton-decoupled and were performed using APT pulse sequence. DFQ-COSY, HSQC, and HMBC experiments were used to assign the ^1H and ^13C NMR signals where required. ROESY experiments were used to confirm the relative stereochemistry of nucleosides 11 and 12. To simplify the assignment, the benzoyl group attached to the 2′-hydroxy group of the ribofuranose ring was given the letter A, the one attached to the 3′-hydroxy group is considered B, and the benzoyl group at 5′-OH is called C (Figure 3). All spectra can be found in Supporting Information S6. In the ROESY spectra for nucleosides 11, 12-β, and 12-α, the important relations for the determination of the stereochemistry are highlighted. Infrared spectra (IR) were recorded on a Bruker ALPHA FT-IR spectrometer with a single-reflection Platinum ATR module. The compounds were measured in their initial state of appearance at 20 °C, and their absorption bands were reported in wavenumbers (ṽ) in the range between 4000 and 400 cm^–1. Intensities are described as strong (s), medium (m), and weak (w). UV/vis spectra were measured on a Varian Cary 100 Bio UV–visible spectrophotometer in the range 250–800 nm using transparent 1.5 mL quartz cuvettes. Fluorescence spectra were recorded on a Fluoromax 4 spectrofluorimeter from HORIBA Scientific. […]

A549 (lung cancer) = assay: MTS cytotoxicity assay, A549; assay type: cell-based; conditions: Homo sapiens
Description: as §1, §2

U2OS (bone osteosarcoma) = assay: MTS cytotoxicity assay, U2OS; assay type: cell-based; conditions: Homo sapiens
Description: as §1, §2

[1] = test system: HL60 (acute promyelocytic leukemia); assay: CellTiter-Glo cytotoxicity assay, HL60; assay type: cell-based; conditions: Homo sapiens, HL-60, top concentration 10 μM
Description: as §1, §2

BJ = assay: MTS cytotoxicity assay, BJ fibroblasts; assay type: cell-based; conditions: Homo sapiens; nonmalignant fibroblasts BJ; top concentration 50 μM
Description: as §1, §2

[2] = test system: HCT116 (colon carcinoma, parental); assay: MTS cytotoxicity assay, HCT116; assay type: cell-based; conditions: Homo sapiens, HCT-116
Description: as §1, §2

[3] = test system: HCT116p53– (colon carcinoma, p53 deficient); assay: MTS cytotoxicity assay, HCT116p53–; assay type: cell-based
Description: as §1, §2

[4] = test system: K562 (chronic myelogenous leukemia); assay: MTS cytotoxicity assay, K562; assay type: cell-based; conditions: Homo sapiens
Description: as §1, §2

[5] = test system: noncancerous human dermal fibroblasts (NHDF); assay: CellTiter-Glo cytotoxicity assay, NHDF; assay type: cell-based; conditions: top concentration 10 μM
Description: as §1, §2

[6] = test system: HepG2 (hepatocellular liver carcinoma); assay: CellTiter-Glo cytotoxicity assay, HepG2; assay type: cell-based; conditions: Homo sapiens, top concentration 10 μM
Description: as §1, §2

HeLa (cervical cancer) = assay: CellTiter-Glo cytotoxicity assay, HeLa; assay type: cell-based; conditions: Homo sapiens, top concentration 10 μM
Description: as §1, §2

[7] = test system: CCRF-CEM (acute T-lymphoblastic leukemia); assay: MTS cytotoxicity assay, CCRF-CEM; assay type: cell-based; conditions: for pIC50: Homo sapiens
Description: as §1, §2

[8] = test system: cancer cell lines and nonmalignant fibroblast cell lines; assay: In vitro cytotoxic activity across the whole cell line panel (MTS and CellTiter-Glo); assay type: cell-based; conditions: for cytotoxic activity across tested cell lines (in words): whole panel of tested cell lines; for cytotoxicity against nonmalignant cell lines BJ, MRC-5, and NHDF (in words): MRC-5, NHDF
Description: as §1, §2

`OC[C@H]1O[C@@H](n2c3ccc4ncccc4c3c3c(-c4ccco4)ncnc32)[C@H](O)[C@@H]1O` [14a, 11-(Furan-2-yl)-7-(β-D-ribofuranosyl)pyrimido[5′,4′:4,5]pyrrolo[3,2-f]quinoline] showed a pIC50 (MRC-5) of less than 4.30, a pIC50 (A549 (lung cancer)) of less than 4.30 and a pIC50 (U2OS (bone osteosarcoma)) of less than 4.30. It also gave a pIC50 [1] of less than 5.00, a pIC50 (BJ) of less than 4.30 and a pIC50 [2] of less than 4.30. For the same molecule, the pIC50 [3] was less than 4.30, the pIC50 [4] was less than 4.30 and the pIC50 [5] was less than 5.00. For the same molecule, the pIC50 [6] was less than 5.00, the pIC50 (HeLa (cervical cancer)) was less than 5.00 and the “activity against the CCRF-CEM leukemia line (in words)” value [7] was “weak activity”. It also gave a pIC50 [7] of 4.41.

`CSc1ncnc2c1c1c3cccnc3ccc1n2[C@@H]1O[C@H](CO)[C@@H](O)[C@H]1O` [14g, 11-Methylthio-7-(β-D-ribofuranosyl)pyrimido[5′,4′:4,5]pyrrolo[3,2-f]quinoline] gave a pIC50 (MRC-5) of 4.43, a pIC50 (A549 (lung cancer)) of 4.77 and a pIC50 (U2OS (bone osteosarcoma)) of 4.82. The pIC50 [1] was 5.03, the pIC50 (BJ) was 4.43 and the pIC50 [2] was 5.03. The “cytotoxic activity across tested cell lines (in words)” value [8] was “moderate cytotoxic activity”, the pIC50 [3] was 4.79 and the pIC50 [4] was 4.73. For the same molecule, the melting point was 228 to 242 °C (dec.), the pIC50 [5] was less than 5.00 and the pIC50 [6] was less than 5.00. The pIC50 (HeLa (cervical cancer)) was less than 5.00 and the pIC50 [7] was 5.29.

Work on `OC[C@H]1O[C@@H](n2c3ccc4ncccc4c3c3c(-c4cc5ccccc5o4)ncnc32)[C@H](O)[C@@H]1O` [14b, 11-(Benzofuran-2-yl)-7-(β-D-ribofuranosyl)pyrimido[5′,4′:4,5]pyrrolo[3,2-f]quinoline] yielded a pIC50 (MRC-5) of less than 4.30, a pIC50 (A549 (lung cancer)) of less than 4.30 and a pIC50 (U2OS (bone osteosarcoma)) of less than 4.30. It also gave a pIC50 [1] of less than 5.00, a pIC50 (BJ) of less than 4.30 and a pIC50 [2] of 4.44. For the same molecule, the pIC50 [3] was 4.36, the pIC50 [4] was less than 4.30 and the melting point was 124 °C. It also gave a pIC50 [5] of less than 5.00, a pIC50 [6] of 5.55 and a pIC50 (HeLa (cervical cancer)) of less than 5.00. For the same molecule, the “activity against the CCRF-CEM leukemia line (in words)” value [7] was “weak activity” and the pIC50 [7] was 4.73.

Work on `COc1ncnc2c1c1c3cccnc3ccc1n2[C@@H]1O[C@H](CO)[C@@H](O)[C@H]1O` [14f, 11-Methoxy-7-(β-D-ribofuranosyl)pyrimido[5′,4′:4,5]pyrrolo[3,2-f]quinoline] yielded a pIC50 (MRC-5) of less than 4.30, a pIC50 (A549 (lung cancer)) of 4.56 and a pIC50 (U2OS (bone osteosarcoma)) of 4.76. It also gave a pIC50 [1] of 5.28, a pIC50 (BJ) of less than 4.30 and a pIC50 [2] of 5.01. The “cytotoxicity against nonmalignant cell lines BJ, MRC-5, and NHDF (in words)” value (shortened to “cytotoxicity”) [8] was “no cytotoxicity”, the “cytotoxic activity across tested cell lines (in words)” value [8] was “moderate cytotoxic activity” and the pIC50 [3] was 4.64. For the same molecule, the pIC50 [4] was 4.40, the melting point was 190 to 205 °C (dec.) and the pIC50 [5] was less than 5.00. The pIC50 [6] was less than 5.00, the pIC50 (HeLa (cervical cancer)) was less than 5.00 and the pIC50 [7] was 5.10.

`Nc1ncnc2c1c1c3cccnc3ccc1n2[C@@H]1O[C@H](CO)[C@@H](O)[C@H]1O` [14e, 11-Amino-7-(β-D-ribofuranosyl)pyrimido[5′,4′:4,5]pyrrolo[3,2-f]quinoline] gave a pIC50 (MRC-5) of less than 4.30, a pIC50 (A549 (lung cancer)) of less than 4.30 and a pIC50 (U2OS (bone osteosarcoma)) of 4.77. The pIC50 [1] was 5.28, the pIC50 (BJ) was less than 4.30 and the pIC50 [2] was 4.72. The “cytotoxicity” value [8] was “no cytotoxicity”, the “cytotoxic activity across tested cell lines (in words)” value [8] was “moderate cytotoxic activity” and the pIC50 [3] was 4.76. For the same molecule, the pIC50 [4] was 5.00, the melting point was 210 to 235 °C (dec.) and the pIC50 [5] was less than 5.00. It also gave a pIC50 [6] of 5.07, a pIC50 (HeLa (cervical cancer)) of less than 5.00 and a pIC50 [7] of 5.07.

`CN(C)c1ncnc2c1c1c3cccnc3ccc1n2[C@@H]1O[C@H](CO)[C@@H](O)[C@H]1O` [14d, 11-(N,N-Dimethylamino)-7-(β-D-ribofuranosyl)pyrimido[5′,4′:4,5]pyrrolo[3,2-f]quinoline] showed a pIC50 (MRC-5) of less than 4.30, a pIC50 (A549 (lung cancer)) of less than 4.30 and a pIC50 (U2OS (bone osteosarcoma)) of less than 4.30. For the same molecule, the pIC50 [1] was less than 5.00, the pIC50 (BJ) was less than 4.30 and the pIC50 [2] was less than 4.30. The “cytotoxic activity across tested cell lines (in words)” value [8] was “did not show any cytotoxicity whatsoever”, the pIC50 [3] was less than 4.30 and the pIC50 [4] was less than 4.30. For the same molecule, the melting point was 240 °C, the pIC50 [5] was less than 5.00 and the pIC50 [6] was less than 5.00. The pIC50 (HeLa (cervical cancer)) was less than 5.00 and the pIC50 [7] was less than 4.30.

Work on `Cc1ncnc2c1c1c3cccnc3ccc1n2[C@@H]1O[C@H](CO)[C@@H](O)[C@H]1O` [14c, 11-Methyl-7-(β-D-ribofuranosyl)pyrimido[5′,4′:4,5]pyrrolo[3,2-f]quinoline] yielded a pIC50 (MRC-5) of less than 4.30, a pIC50 (A549 (lung cancer)) of 4.58 and a pIC50 (U2OS (bone osteosarcoma)) of 4.88. The pIC50 [1] was 5.17, the pIC50 (BJ) was less than 4.30 and the pIC50 [2] was 4.77. For the same molecule, the “cytotoxicity” value [8] was “no cytotoxicity”, the “cytotoxic activity across tested cell lines (in words)” value [8] was “moderate cytotoxic activity” and the pIC50 [3] was 4.77. It also gave a pIC50 [4] of 4.92, a melting point of 256 °C and a pIC50 [5] of less than 5.00. For the same molecule, the pIC50 [6] was less than 5.00, the pIC50 (HeLa (cervical cancer)) was less than 5.00 and the pIC50 [7] was 5.19.
